Source: ChEMBL document CHEMBL1142267, “Optimization of alpha-ketooxazole inhibitors of fatty acid amide hydrolase” (J Med Chem, 2008)
Blank lines part the entries; values can stand above or below the molecule they belong to.

What was measured:
[1] = molecular target: T1, Fatty-acid amide hydrolase 1 (Rattus norvegicus, UniProt P97612); assay: Inhibition of rat recombinant FAAH expressed in Escherichia coli
T1 sequence (P97612 whole entry): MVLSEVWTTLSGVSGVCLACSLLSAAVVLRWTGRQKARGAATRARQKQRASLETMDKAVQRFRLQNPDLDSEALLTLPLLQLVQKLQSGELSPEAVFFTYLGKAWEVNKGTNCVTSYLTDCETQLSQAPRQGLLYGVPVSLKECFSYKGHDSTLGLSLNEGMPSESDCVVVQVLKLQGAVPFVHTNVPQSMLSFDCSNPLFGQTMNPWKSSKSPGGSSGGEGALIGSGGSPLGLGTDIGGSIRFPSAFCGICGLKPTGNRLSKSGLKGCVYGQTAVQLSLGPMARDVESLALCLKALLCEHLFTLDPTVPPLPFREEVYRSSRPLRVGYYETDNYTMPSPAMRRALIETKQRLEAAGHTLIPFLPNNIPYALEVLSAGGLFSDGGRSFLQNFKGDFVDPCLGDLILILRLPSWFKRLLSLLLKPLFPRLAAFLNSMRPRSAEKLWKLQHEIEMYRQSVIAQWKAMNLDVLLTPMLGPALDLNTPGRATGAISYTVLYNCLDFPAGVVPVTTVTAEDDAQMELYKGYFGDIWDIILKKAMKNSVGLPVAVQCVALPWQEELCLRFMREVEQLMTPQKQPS

[2] = molecular target: T2, Neutral cholesterol ester hydrolase 1 (Homo sapiens, UniProt Q6PIU2); assay: Inhibition of KIAA1363
T2 sequence (Q6PIU2 whole entry): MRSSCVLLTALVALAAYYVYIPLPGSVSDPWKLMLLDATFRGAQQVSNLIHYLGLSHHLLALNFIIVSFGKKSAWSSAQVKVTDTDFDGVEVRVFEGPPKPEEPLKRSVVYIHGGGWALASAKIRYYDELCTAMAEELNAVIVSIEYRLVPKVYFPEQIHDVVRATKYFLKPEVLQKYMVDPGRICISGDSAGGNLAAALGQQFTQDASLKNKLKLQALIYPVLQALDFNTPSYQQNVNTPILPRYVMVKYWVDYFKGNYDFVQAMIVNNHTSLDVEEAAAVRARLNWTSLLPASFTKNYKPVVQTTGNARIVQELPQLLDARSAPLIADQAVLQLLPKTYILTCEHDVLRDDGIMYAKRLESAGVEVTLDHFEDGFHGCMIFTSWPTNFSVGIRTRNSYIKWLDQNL

Liver carboxylesterase 1 = molecular target: T3, Liver carboxylesterase 1 (Homo sapiens, UniProt P23141)
T3 sequence (P23141 whole entry): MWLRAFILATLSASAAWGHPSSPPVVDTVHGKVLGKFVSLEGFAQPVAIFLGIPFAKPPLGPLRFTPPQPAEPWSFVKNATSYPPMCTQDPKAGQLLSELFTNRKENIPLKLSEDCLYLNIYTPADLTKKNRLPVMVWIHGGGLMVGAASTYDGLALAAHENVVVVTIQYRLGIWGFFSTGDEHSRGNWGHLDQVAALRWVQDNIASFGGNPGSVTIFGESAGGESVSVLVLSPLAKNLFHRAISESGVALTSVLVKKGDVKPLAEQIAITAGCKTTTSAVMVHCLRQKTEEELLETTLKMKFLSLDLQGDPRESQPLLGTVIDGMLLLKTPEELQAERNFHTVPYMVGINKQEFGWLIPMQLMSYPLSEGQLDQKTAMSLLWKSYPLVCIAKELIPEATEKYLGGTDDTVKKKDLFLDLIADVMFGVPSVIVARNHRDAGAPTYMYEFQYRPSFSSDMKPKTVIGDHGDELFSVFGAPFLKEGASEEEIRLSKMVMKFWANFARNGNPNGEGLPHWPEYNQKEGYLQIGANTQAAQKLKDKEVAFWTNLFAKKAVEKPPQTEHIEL

[3] = Selectivity for rat recombinant FAAH over TGH
[4] = Selectivity for rat recombinant FAAH over KIAA1363

- Ki [1]: 8 nM
SMILES: O=C(CCc1ccc(-c2ccccc2)cc1)c1ncc(C(=O)C(F)(F)F)o1

- Ki [1]: 20000 nM
SMILES: O=C(O)c1ccc(-c2cnc(CCCc3ccc(-c4ccccc4)cc3)o2)nc1

- Ki [1]: 10000 nM
SMILES: O=C(O)c1ccc(-c2cnc(C(O)CCc3ccc(-c4ccccc4)cc3)o2)nc1 (centres undefined)

- Ki [1]: 3.5 nM
SMILES: NC(=O)c1cnc(C(=O)CCc2ccc(-c3ccccc3)cc2)o1

- Ki [1]: 5.4 nM
SMILES: CN(C)C(=O)c1cnc(C(=O)CCc2ccc(Oc3ccccc3)cc2)o1

- IC50 [1]: 2500 nM
SMILES: O=C(CCCCCCc1ccccc1)c1ncco1

- IC50 [1]: 2 nM
- IC50 [2]: > 100000 nM
- IC50 (Liver carboxylesterase 1): 200 nM
SMILES: O=C(CCc1ccc(Oc2ccccc2)cc1)c1ncc(-c2ccccn2)o1

- Ki [1]: 130 nM
SMILES: O=C(O)c1cccc(-c2cnc(C(=O)CCc3ccc(-c4ccc(CN5CCCC5)cc4)cc3)o2)n1

- Ki [1]: 32 nM
SMILES: COC(=O)c1cccc(-c2cnc(C(=O)CCc3ccc(OC4CCN(C(=O)OC(C)(C)C)CC4)cc3)o2)n1

- Ki [1]: 10 nM
SMILES: O=C(CCc1ccc(Oc2ccccc2)cc1)c1ncc(I)o1

- Ki [1]: 4 nM
SMILES: O=C(CCc1ccc(COc2ccccc2)cc1)c1ncc(I)o1

- Ki [1]: 25 nM
SMILES: O=C(CCc1ccc(-c2ccc(CN3CCCCC3)cc2)cc1)c1ncco1

- Ki [1]: 1.7 nM
SMILES: COC(=O)c1cnc(C(=O)CCc2ccc(Oc3ccccc3)cc2)o1

- Ki [1]: 1.6 nM
SMILES: COC(=O)c1cnc(C(=O)CCc2ccc(COc3ccccc3)cc2)o1

- Ki [1]: 1100 nM
SMILES: COC(=O)c1ccc(-c2cnc(C(O)CCc3ccc(-c4ccccc4)cc3)o2)nc1 (centres undefined)

- Ki [1]: 3 nM
SMILES: CSc1cnc(C(=O)CCc2ccc(-c3ccccc3)cc2)o1

- Ki [1]: 11000 nM
SMILES: O=C(O)c1cccc(-c2cnc(C(=O)CCc3ccc(OC4CCNCC4)cc3)o2)n1

- Ratio IC50 [3]: 500
- IC50 [1]: 180 nM
- IC50 [2]: > 100000 nM
- Ratio IC50 [4]: > 550
- IC50 (Liver carboxylesterase 1): 90000 nM
SMILES: O=C(CCc1ccc(COc2ccccc2)cc1)c1ncc(-c2cccc(-c3nnn[nH]3)n2)o1

- Ratio IC50 [3]: 26
- IC50 [1]: 1 nM
- IC50 [2]: 64000 nM
- Ratio IC50 [4]: 64000
- Selectivity ratio [4]: > 1000
- IC50 (Liver carboxylesterase 1): 26 nM
SMILES: N#Cc1cnc(C(=O)CCc2ccc(-c3ccccc3)cc2)o1

- Ki [1]: > 1000 nM
SMILES: NC(=O)c1ccc(-c2cnc(C(O)CCc3ccc(-c4ccccc4)cc3)o2)nc1 (centres undefined)

- Ratio IC50 [3]: > 200
- IC50 [1]: 500 nM
- IC50 [2]: > 100000 nM
- Ratio IC50 [4]: > 200
- IC50 (Liver carboxylesterase 1): > 100000 nM
SMILES: O=C(CCCCCCc1ccccc1)c1ncc(-c2cccc(-c3nnn[nH]3)n2)o1

- IC50 [2]: > 100000 nM
- IC50 (Liver carboxylesterase 1): 1200 nM
SMILES: O=C(CCc1ccc(-c2ccccc2)cc1)c1ncc(-c2ccccn2)o1

- Ratio IC50 [3]: 1000
- IC50 [1]: 2 nM
- Ratio IC50 [4]: > 50000
- IC50 (Liver carboxylesterase 1): 2000 nM
SMILES: O=C(O)c1cnc(C(=O)CCCCCCc2ccccc2)o1

- Ki [1]: 0.56 nM
SMILES: N#Cc1cccc(-c2cnc(C(=O)CCc3ccc(COc4ccccc4)cc3)o2)n1

- Ki [1]: 30000 nM
SMILES: NC(=O)c1ccc(-c2cnc(CCCc3ccc(-c4ccccc4)cc3)o2)nc1

- Ki [1]: 1.3 nM
SMILES: NC(=O)c1ccc(-c2cnc(C(=O)CCc3ccc(-c4ccccc4)cc3)o2)nc1

- Ratio IC50 [3]: > 5000
- IC50 [1]: 20 nM
- IC50 [2]: > 100000 nM
- Ratio IC50 [4]: > 5000
- IC50 (Liver carboxylesterase 1): > 100000 nM
SMILES: O=C(O)c1cccc(-c2cnc(C(=O)CCc3ccc(Oc4ccccc4)cc3)o2)n1

- Ki [1]: 1200 nM
SMILES: CN1CCN(Cc2ccc(-c3ccc(CCC(=O)c4ncc(-c5cccc(C(=O)O)n5)o4)cc3)cc2)CC1

- Ki [1]: 2.9 nM
SMILES: N#Cc1cccc(-c2cnc(C(=O)CCc3ccc(-c4ccccc4)cc3)o2)n1

- Ratio IC50 [3]: 850
- IC50 [1]: 20 nM
- Ki [1]: 10 nM
- IC50 [2]: > 100000 nM
- Ratio IC50 [4]: > 5000
- IC50 (Liver carboxylesterase 1): 17000 nM
SMILES: O=C(O)c1cnc(C(=O)CCc2ccc(-c3ccccc3)cc2)o1

- Ki [1]: 10000 nM
SMILES: O=C(O)c1cccc(-c2cnc(CCCc3ccc(-c4ccccc4)cc3)o2)n1

SMILES: O=C(O)c1cccc(-c2cnc(C(=O)CCCCCCc3ccccc3)o2)n1
- Ratio IC50 [3]: > 1000
- IC50 [1]: 100 nM
- Ratio IC50 [4]: > 1000

- Ki [1]: 6.7 nM
SMILES: CN(C)C(=O)c1cnc(C(=O)CCc2ccc(COc3ccccc3)cc2)o1

- Ratio IC50 [3]: 740
- IC50 [1]: 50 nM
- Ki [1]: 22 nM
- IC50 [2]: > 100000 nM
- Ratio IC50 [4]: > 2000
- IC50 (Liver carboxylesterase 1): 37000 nM
SMILES: O=C(O)c1cnc(C(=O)CCc2ccc(COc3ccccc3)cc2)o1

- Ki [1]: 0.7 nM
SMILES: O=C(CCc1ccc(-c2ccccc2)cc1)c1ncc(C(F)(F)F)o1

- Ki [1]: 3.6 nM
SMILES: CNC(=O)c1cnc(C(=O)CCc2ccc(COc3ccccc3)cc2)o1

- Ratio IC50 [3]: 70
- IC50 [1]: 100 nM
- Ki [1]: 25 nM
- IC50 [2]: > 100000 nM
- Ratio IC50 [4]: > 1000
- IC50 (Liver carboxylesterase 1): 7000 nM
SMILES: O=C(CCc1ccc(-c2ccccc2)cc1)c1ncc(-c2cccc(-c3nnn[nH]3)n2)o1

- Ki [1]: 50000 nM
SMILES: COC(=O)c1ccc(-c2cnc(CCCc3ccc(-c4ccccc4)cc3)o2)nc1

- Ratio IC50 [3]: 30
- IC50 [1]: 80 nM
- Ki [1]: 41 nM
- IC50 [2]: > 100000 nM
- Ratio IC50 [4]: > 1250
- IC50 (Liver carboxylesterase 1): 2400 nM
SMILES: O=C(O)c1cnc(C(=O)CCc2ccc(Oc3ccccc3)cc2)o1

- Ki [1]: 4 nM
SMILES: O=C(CCc1ccc(-c2ccccc2)cc1)c1ncc(I)o1

- Ki [1]: 120 nM
SMILES: CC(C)(C)OC(=O)N1CCC(Oc2ccc(CCC(=O)c3ncc(-c4cccc(C(=O)O)n4)o3)cc2)CC1

- Ratio IC50 [3]: 1000
- IC50 [1]: 2 nM
- IC50 [2]: > 100000 nM
- Ratio IC50 [4]: > 50000
- IC50 (Liver carboxylesterase 1): 2000 nM
SMILES: O=C(CCc1ccc(COc2ccccc2)cc1)c1ncc(-c2ccccn2)o1

- Ki [1]: 1100 nM
SMILES: O=C(O)c1cccc(-c2cnc(C(O)CCc3ccc(-c4ccccc4)cc3)o2)n1 (centres undefined)

- Ratio IC50 [3]: 650
- IC50 [1]: 40 nM
- IC50 [2]: > 100000 nM
- Ratio IC50 [4]: > 2500
- IC50 (Liver carboxylesterase 1): 26000 nM
SMILES: O=C(O)c1cccc(-c2cnc(C(=O)CCc3ccc(COc4ccccc4)cc3)o2)n1

- Ki [1]: 6.6 nM
SMILES: NC(=O)c1cnc(C(=O)CCc2ccc(Oc3ccccc3)cc2)o1

- Ki [1]: 7000 nM
SMILES: COC(=O)c1cccc(-c2cnc(CCCc3ccc(-c4ccccc4)cc3)o2)n1

- Ki [1]: 1.5 nM
SMILES: COC(=O)c1cc(-c2cnc(C(=O)CCc3ccc(-c4ccccc4)cc3)o2)ccn1

- Ki [1]: 3 nM
SMILES: CN(C)C(=O)c1cnc(C(=O)CCc2ccc(-c3ccccc3)cc2)o1

- Ki [1]: 20000 nM
SMILES: NC(=O)c1cccc(-c2cnc(C(O)CCc3ccc(-c4ccccc4)cc3)o2)n1 (centres undefined)

- Ki [1]: 4000 nM
SMILES: NC(=O)c1cccc(-c2cnc(CCCc3ccc(-c4ccccc4)cc3)o2)n1

- Ki [1]: 1.5 nM
SMILES: COC(=O)c1cnc(C(=O)CCc2ccc(-c3ccccc3)cc2)o1

- Ki [1]: 4.5 nM
SMILES: NC(=O)c1cnc(C(=O)CCc2ccc(COc3ccccc3)cc2)o1

- Ratio IC50 [3]: > 17000
- IC50 [1]: 6 nM
- IC50 [2]: > 100000 nM
- Ratio IC50 [4]: > 17000
- IC50 (Liver carboxylesterase 1): > 100000 nM
SMILES: O=C(O)c1cccc(-c2cnc(C(=O)CCc3ccc(-c4ccccc4)cc3)o2)n1

- Ki [1]: 9000 nM
SMILES: COC(=O)c1cccc(-c2cnc(C(O)CCc3ccc(-c4ccccc4)cc3)o2)n1 (centres undefined)

- Ki [1]: 1.2 nM
SMILES: CS(=O)(=O)c1cnc(C(=O)CCc2ccc(-c3ccccc3)cc2)o1

- Ki [1]: 4500 nM
SMILES: COC(=O)c1cccc(-c2cnc(C(=O)CCc3ccc(OC4CCNCC4)cc3)o2)n1

- Ki [1]: 11 nM
SMILES: CNC(=O)c1cnc(C(=O)CCc2ccc(Oc3ccccc3)cc2)o1
